{"source": "ChEMBL document CHEMBL2029330", "about": "(Bioorg Med Chem Lett, 2012)", "key": {"[1]": {"test": "Aqueous solubility of the compound at pH 7.4", "format": "physicochemical", "details": "aqueous medium"}, "in vitro": {"test": "in vitro", "details": "human, hepatocytes"}, "[2]": {"test": "Oral bioavailability in rat", "format": "ADME, organism-based", "details": "in vivo"}, "[3]": {"test": "Oral bioavailability in dog", "format": "ADME, organism-based, Canis lupus familiaris", "details": "in vivo"}, "[4]": {"test": "Volume of distribution at steady state in dog", "format": "ADME, organism-based, Canis lupus familiaris", "details": "in vivo, read-out: Vdss"}, "[5]": {"test": "Volume of distribution at steady state in rat", "format": "ADME, organism-based", "details": "in vivo, read-out: Vdss"}, "[6]": {"test": "Clearance in rat", "format": "ADME, organism-based", "details": "in vivo"}, "[7]": {"test": "Half life in rat", "format": "ADME, organism-based", "details": "in vivo"}, "[8]": {"test": "Clearance in dog", "format": "ADME, organism-based, Canis lupus familiaris", "details": "in vivo"}, "[9]": {"test": "Half life in dog", "format": "ADME, organism-based, Canis lupus familiaris", "details": "in vivo"}, "[10]": {"test": "Lipophilicity, log D of the compound at pH 7.4", "format": "physicochemical", "details": "buffer"}, "[11]": {"test": "Apparent permeability of the compound from basolateral to apical side across human Caco2 cells at 10 uM", "format": "ADME, cell-based", "details": "Caco-2"}, "[12]": {"test": "Dissociation constant, pKa of the compound", "format": "physicochemical"}, "[13]": {"test": "Apparent permeability of the compound from apical to basolateral side across human Caco2 cells at 10 uM", "format": "ADME, cell-based", "details": "Caco-2"}}}
{"smiles": "Cc1ccc(NC(=O)c2ccnc(N3CCOCC3)c2)cc1-n1cnc2ccc(N3CCN(C)CC3)cc2c1=O", "values": [{"measurement": "solubility", "setting": "[1]", "value": 300, "unit": "µM"}, {"measurement": "hepatocyte CLint", "setting": "in vitro", "value": 17, "unit": "µL/min/1e6 cells"}]}
{"smiles": "Cc1ccc(NC(=O)c2ccnc(N3CCOCC3)c2)cc1-n1c(C)nc2ccc(N3CCN(C)CC3)cc2c1=O", "values": [{"measurement": "solubility", "setting": "[1]", "value": 300, "unit": "µM"}]}
{"smiles": "Cc1ccc(NC(=O)c2cccc(N3CCOCC3)c2)cc1-n1cnc2ccc(N3CCN(C)CC3)cc2c1=O", "values": [{"measurement": "solubility", "setting": "[1]", "value": 300, "unit": "µM"}]}
{"smiles": "Cc1ccc(NC(=O)c2ccccc2)cc1-n1cnc2ccc(N3CCN(C)CC3)cc2c1=O", "values": [{"measurement": "hepatocyte CLint", "setting": "in vitro", "value": 6, "unit": "µL/min/1e6 cells"}]}
{"smiles": "COc1ccccc1C(=O)Nc1ccc(C)c(-n2cnc3ccc(N4CCN(C)CC4)cc3c2=O)c1", "values": [{"measurement": "hepatocyte CLint", "setting": "in vitro", "value": 5, "unit": "µL/min/1e6 cells"}]}
{"smiles": "Cc1ccc(NC(=O)c2cccc(C#N)c2)cc1-n1cnc2ccc(N3CCN(C)CC3)cc2c1=O", "values": [{"measurement": "hepatocyte CLint", "setting": "in vitro", "value": "< 3", "unit": "µL/min/1e6 cells"}]}
{"smiles": "Cc1ccc(NC(=O)c2ccc(C#N)cc2)cc1-n1cnc2ccc(N3CCN(C)CC3)cc2c1=O", "values": [{"measurement": "bioavailability", "setting": "[2]", "value": 29, "unit": "%"}, {"measurement": "bioavailability", "setting": "[3]", "value": 53, "unit": "%"}, {"measurement": "Vd", "setting": "[4]", "value": 7.8, "unit": "L/kg"}, {"measurement": "Vd", "setting": "[5]", "value": 4.8, "unit": "L/kg"}]}
{"smiles": "Cc1ccc(NC(=O)c2ccccc2F)cc1-n1cnc2ccc(N3CCN(C)CC3)cc2c1=O", "values": [{"measurement": "hepatocyte CLint", "setting": "in vitro", "value": 7, "unit": "µL/min/1e6 cells"}]}
{"smiles": "Cc1ccc(NC(=O)c2cccc(F)c2)cc1-n1cnc2ccc(N3CCN(C)CC3)cc2c1=O", "values": [{"measurement": "hepatocyte CLint", "setting": "in vitro", "value": 11, "unit": "µL/min/1e6 cells"}]}
{"smiles": "Cc1ccc(NC(=O)c2ccno2)cc1-n1cnc2ccc(N3CCN(C)CC3)cc2c1=O", "values": [{"measurement": "hepatocyte CLint", "setting": "in vitro", "value": 5, "unit": "µL/min/1e6 cells"}]}
{"smiles": "Cc1ccc(NC(=O)c2cscn2)cc1-n1cnc2ccc(N3CCN(C)CC3)cc2c1=O", "values": [{"measurement": "hepatocyte CLint", "setting": "in vitro", "value": 7, "unit": "µL/min/1e6 cells"}]}
{"smiles": "Cc1ccc(NC(=O)c2cncs2)cc1-n1cnc2ccc(N3CCN(C)CC3)cc2c1=O", "values": [{"measurement": "hepatocyte CLint", "setting": "in vitro", "value": "< 3", "unit": "µL/min/1e6 cells"}]}
{"smiles": "Cc1ccc(C(=O)Nc2ccon2)cc1-n1cnc2ccc(N3CCN(C)CC3)cc2c1=O", "values": [{"measurement": "bioavailability", "setting": "[2]", "value": 41, "unit": "%"}, {"measurement": "clearance", "setting": "[6]", "value": 17, "unit": "mL/min/kg"}, {"measurement": "half-life", "setting": "[7]", "value": 102, "unit": "min"}, {"measurement": "bioavailability", "setting": "[3]", "value": 20, "unit": "%"}, {"measurement": "Vd", "setting": "[4]", "value": 3.7, "unit": "L/kg"}, {"measurement": "clearance", "setting": "[8]", "value": 19, "unit": "mL/min/kg"}, {"measurement": "half-life", "setting": "[9]", "value": 240, "unit": "min"}, {"measurement": "Vd", "setting": "[5]", "value": 2.5, "unit": "L/kg"}]}
{"smiles": "Cc1ccc(C(=O)NC2CC2)cc1-n1cnc2ccc(N3CCN(C)CC3)cc2c1=O", "note": "[AZD-6703]", "values": [{"measurement": "bioavailability", "setting": "[2]", "value": 49, "unit": "%"}, {"measurement": "clearance", "setting": "[6]", "value": 26, "unit": "mL/min/kg"}, {"measurement": "hepatocyte CLint", "setting": "in vitro", "value": 2, "unit": "µL/min/1e6 cells"}, {"measurement": "bioavailability", "setting": "[3]", "value": 68, "unit": "%"}, {"measurement": "Vd", "setting": "[4]", "value": 3.3, "unit": "L/kg"}, {"measurement": "logD", "setting": "[10]", "value": 1.6}, {"measurement": "clearance", "setting": "[8]", "value": 24, "unit": "mL/min/kg"}, {"measurement": "half-life", "setting": "[9]", "value": 102, "unit": "min"}, {"measurement": "Vd", "setting": "[5]", "value": 1.9, "unit": "L/kg"}, {"measurement": "Papp B→A at 10 µM", "setting": "[11]", "value": 11, "unit": "×10⁻⁶ cm/s"}, {"measurement": "pKa", "setting": "[12]", "value": 7.6}, {"measurement": "Papp A→B at 10 µM", "setting": "[13]", "value": 6, "unit": "×10⁻⁶ cm/s"}]}
